Measurements taken from US20230381133A1, “TAU AND AMYLOID PROTEIN LOWERING COMPOUNDS AND METHODS OF USE” (Qatar Foundation for Education, Science and Community …, priority 2022, published 2023).

Tests used:
TBI patient = assay: Treatment of a Traumatic Brain Injury (TBI) patient; assay type: in vivo; details: compared to a non-treated patient
Description: A therapeutically effective amount of the TA analog 2-(2-cyanophenylthio) benzoic acid is administered to a TBI patient.

Down's Syndrome patient = assay: Treatment of a Down's Syndrome patient; assay type: in vivo; details: compared to a non-treated patient
Description: A therapeutically effective amount of the TA analog 2-(2-cyanophenylthio) benzoic acid is administered to a Down's Syndrome patient.

[1] = tested on: corticobasal degeneration patient; assay: Treatment of a corticobasal degeneration patient; assay type: in vivo; details: compared to a non-treated patient
Description: A therapeutically effective amount of the TA analog 2-(2-cyanophenylthio) benzoic acid is administered to a corticobasal degeneration patient.

FTLD patient = assay: Treatment of a Frontotemporal Lobar Degeneration (FTLD) patient; assay type: in vivo; details: compared to a non-treated patient
Description: A therapeutically effective amount of the TA analog 2-(2-cyanophenylthio) benzoic acid is administered to an FTLD patient.

AD patient = assay: Treatment of an AD patient; assay type: in vivo; details: compared to a non-treated patient
Description: A therapeutically effective amount of the TA analog 2-(2-cyanophenylthio) benzoic acid is administered to an AD patient.

bvFTLD patient = assay: Treatment of a Behavioral Variant Frontotemporal Dementia (bvFTLD) patient; assay type: in vivo; details: compared to a non-treated patient
Description: A therapeutically effective amount of the TA analog 2-(2-cyanophenylthio) benzoic acid is administered to a bvFTLD patient.

PSP patient = assay: Treatment of a Progressive Supranuclear Palsy (PSP) patient; assay type: in vivo; details: compared to a non-treated patient
Description: A therapeutically effective amount of the TA analog 2-(2-cyanophenylthio) benzoic acid is administered to a PSP patient.

Pick disease patient = assay: Treatment of a Pick disease patient; assay type: in vivo; details: compared to a non-treated patient
Description: A therapeutically effective amount of the TA analog 2-(2-cyanophenylthio) benzoic acid is administered to a Pick disease patient.

CTE patient = assay: Treatment of a Chronic Traumatic Encephalopathy (CTE) patient; assay type: in vivo; details: compared to a non-treated patient
Description: A therapeutically effective amount of the TA analog 2-(2-cyanophenylthio) benzoic acid is administered to a CTE patient.

SP1 = SP1 (Homo sapiens, UniProt P08047); details: background statement; cited from earlier work
[2] = background statement; cited from earlier work

SP1, sequence (P08047 whole entry): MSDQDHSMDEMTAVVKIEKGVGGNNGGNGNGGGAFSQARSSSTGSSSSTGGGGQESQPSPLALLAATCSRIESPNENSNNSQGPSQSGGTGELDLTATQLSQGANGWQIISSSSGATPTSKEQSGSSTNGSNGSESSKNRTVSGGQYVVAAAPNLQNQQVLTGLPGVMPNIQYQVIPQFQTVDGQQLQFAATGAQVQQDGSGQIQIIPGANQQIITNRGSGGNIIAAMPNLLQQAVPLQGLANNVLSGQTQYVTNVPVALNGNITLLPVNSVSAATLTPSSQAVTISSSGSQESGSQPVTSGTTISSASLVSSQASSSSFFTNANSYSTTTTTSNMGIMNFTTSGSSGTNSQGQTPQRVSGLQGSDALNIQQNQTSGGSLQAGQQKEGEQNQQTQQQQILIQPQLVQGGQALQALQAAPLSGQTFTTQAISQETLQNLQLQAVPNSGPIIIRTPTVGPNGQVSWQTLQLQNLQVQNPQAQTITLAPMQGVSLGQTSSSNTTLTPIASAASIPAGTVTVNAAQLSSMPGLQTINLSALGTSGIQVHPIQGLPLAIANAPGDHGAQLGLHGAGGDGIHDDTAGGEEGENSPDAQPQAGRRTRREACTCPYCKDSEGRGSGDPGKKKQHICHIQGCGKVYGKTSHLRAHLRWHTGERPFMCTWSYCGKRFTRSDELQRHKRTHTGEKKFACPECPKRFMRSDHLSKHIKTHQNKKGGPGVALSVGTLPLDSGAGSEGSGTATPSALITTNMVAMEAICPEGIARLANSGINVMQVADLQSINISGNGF

N#Cc1ccccc1Sc1ccccc1C(=O)O [2-(2-cyanophenylthio) benzoic acid, 2-(2-cyanophenylthio)benzoic acid]
symptoms are reduced: patient's symptoms (TBI patient) | patient's symptoms (Down's Syndrome patient) | patient's symptoms [1] | patient's symptoms (FTLD patient) | patient's symptoms (AD patient) | patient's symptoms (bvFTLD patient) | patient's symptoms (PSP patient) | patient's symptoms (Pick disease patient) | patient's symptoms (CTE patient)

Cc1c(Cl)cccc1Nc1ccccc1C(=O)O [TA, Tolfenamic Acid]
cross the blood brain barrier: ability to cross the blood brain barrier (BBB) [2]
interact directly with SP1: interaction with SP1 (SP1)
